Data published in publication PMC5347165, “Killing of Staphylococcus aureus and Salmonella enteritidis and neutralization of lipopolysaccharide by 17-residue bovine lactoferricins: improved activity of Trp/Ala-containing molecules” (Scientific Reports, 2017).
In brackets after ≈: the same amount, converted by molar mass. Read-outs that look alike come from different tables or passages of the source. Ends that are not written are not given here.

Columns and labels:
mouse erythrocytes = settings: 256 μg/ml; cited from earlier work
S. aureus ATCC25923 [1] = format: cell-based, Staphylococcus aureus; settings: ATCC25923, 18 h
Procedure: (§1) The MIC values of LfcinB17-33 derivatives against bacteria were determined by the microtiter broth dilution method. Briefly, 10 μl of serially diluted aliquots of peptides were added to each well of 96-well microtiter plates, followed by the addition of 90 μl exponential phase bacteria (10^5 CFU/ml) and incubated for 16‒18 h at 37 °C.

S. enteritidis CVCC3377 = format: cell-based, Salmonella enteritidis; settings: CVCC3377, 18 h
Procedure: as §1

P. aeruginosa CICC21630 = format: cell-based, Pseudomonas aeruginosa; settings: CICC21630, 18 h
Procedure: as §1

[2] = tested on: Bacillus subtilis ATCC6633; format: cell-based; settings: ATCC6633, 18 h
Procedure: as §1

S. pullorum CVCC1789 = format: cell-based; settings: CVCC1789, 18 h
Procedure: as §1

[3] = tested on: Staphylococcus aureus ATCC43300; format: cell-based; settings: ATCC43300, 18 h
Procedure: as §1

[4] = tested on: Pseudomonas aeruginosa CICC10419; format: cell-based; settings: CICC10419, 18 h
Procedure: as §1

[5] = tested on: Enterococcus faecium CMCC1.2136; format: cell-based; settings: CMCC1.2136, 18 h
Procedure: as §1

Escherichia coli CVCC195 = format: cell-based; settings: CVCC195, 18 h
Procedure: as §1

S. choleraesuis CVCC503 = format: cell-based; settings: CVCC503, 18 h
Procedure: as §1

[6] = tested on: Streptococcus suis CVCC606; format: cell-based; settings: 18 h
Procedure: as §1

S. pullorum CVCC1802 = format: cell-based; settings: CVCC1802, 18 h
Procedure: as §1

[7] = tested on: Salmonella typhimurium ATCC14028; format: cell-based; settings: ATCC14028, 18 h
Procedure: as §1

E. coli CVCC1515 = format: cell-based, Escherichia coli; settings: CVCC1515, 18 h
Procedure: as §1

[8] = tested on: E. coli CICC21530 (serotype O157:H7); format: cell-based, Escherichia coli; settings: microtiter broth dilution, 10^5 CFU/ml, 16‒18 h at 37 °C; representative of three independent experiments
Procedure: as §1

S. aureus ATCC25923 [9] = format: in vivo
Procedure: The thigh infection protocol was performed as previously described. Female BALB/c mice (6 weeks old, 22 ± 2 g) were rendered neutropenic (neutrophils, 100/mm^3) by intraperitoneal injection with 150 and 100 mg cyclophosphamide per kg of body weight for 4 d and 1 d before infection, respectively. Mice were inoculated with 100 μl of S. aureus ATCC25923 cells (1.0 × 10^7 CFU/ml) and given a single dose (0.2 ml) of Lfcin4 or Lfcin5 (10 or 15 mg/kg of body weight) or vancomycin (10 mg/kg of body weight) by tail vein injection at 2 h post-infection. Mice were humanely euthanized by cervical dislocation at 5 and 10 h after treatment. Thighs were removed and homogenized in sterile PBS for a CFU assay for S. aureus ATCC25923.

LPS from E. coli O111:B4 = experiment: LPS-induced endotoxemia model, survival; format: in vivo, mouse (C57BL/6); settings: 15 mg/kg i.p. at 0.5, 8 and 24 h after LPS 30 mg/kg i.p.; followed 7 d; groups of eight mice
Procedure: Male C57BL/6 mice (8 weeks old, 22 ± 2 g) were intraperitoneally injected with 30 mg/kg of LPS (0.2 ml) from E. coli O111:B4 cells as previously described. Mice were intraperitoneally injected with Lfcin4 or Lfcin5 (10, 15 or 20 mg/kg of body weight in 0.2 ml) or colistin (15 mg/kg of body weight in 0.2 ml) at 0.5, 8 and 24 h after inoculation with LPS, respectively. Mice injected with LPS or saline only served as positive or mock-treated controls, respectively. Survival was recorded every 12 h and followed for up to 7 d.

Row | Compound | hemolysis (mouse erythrocytes) | MIC (S. aureus ATCC25923 [1]) | MIC (S. enteritidis CVCC3377) | MIC (P. aeruginosa CICC21630) | MIC [2] | MIC (S. pullorum CVCC1789) | MIC [3] | MIC [4] | MIC [5] | MIC (Escherichia coli CVCC195) | MIC (S. choleraesuis CVCC503) | MIC [6] | MIC (S. pullorum CVCC1802) | MIC [7] | MIC (E. coli CVCC1515) | MIC [8] | decrease of bacterial count in thigh (S. aureus ATCC25923 [9]; 10 mg/kg single i.v. dose (Fig. 6B), time not restated, sentence follows the 5 h result) | S. aureus cells killed (S. aureus ATCC25923 [9]; 10 h post-treatment, 10 mg/kg single i.v. dose) | S. aureus cells killed (S. aureus ATCC25923 [9]; ATCC25923, mouse, in vivo, iv, 15 mg/kg, 10 h) | survival rate (LPS from E. coli O111:B4)
1 | CSCC[C@H](NC(=O)[C@H](CCCNC(=N)N)NC(=O)[C@H](Cc1c[nH]c2ccccc12)NC(=O)[C@H](CCC(N)=O)NC(=O)[C@H](Cc1c[nH]c2ccccc12)NC(=O)[C@H](CCCNC(=N)N)NC(=O)[C@H](CCCNC(=N)N)NC(=O)[C@H](CS)NC(=O)[C@H](CCCCN)NC(=O)[C@@H](N)Cc1ccccc1)C(=O)N[C@@H](CCCCN)C(=O)N[C@@H](CCCCN)C(=O)N[C@@H](CC(C)C)C(=O)NCC(=O)N[C@@H](C)C(=O)O [Lfcin1] | approximately 7.5% | – | – | – | – | – | – | – | – | – | – | – | – | – | – | – | – | – | – | –
2 | CSCC[C@H](NC(=O)[C@H](CCCNC(=N)N)NC(=O)[C@H](Cc1c[nH]c2ccccc12)NC(=O)[C@H](CCC(N)=O)NC(=O)[C@H](Cc1c[nH]c2ccccc12)NC(=O)[C@H](CCCNC(=N)N)NC(=O)[C@H](CCCNC(=N)N)NC(=O)[C@H](CS)NC(=O)[C@H](CCCCN)NC(=O)[C@@H](N)Cc1ccccc1)C(=O)N[C@@H](CCCCN)C(=O)N[C@@H](CCCCN)C(=O)N[C@@H](CC(C)C)C(=O)NCC(=O)N[C@@H](C)C(=O)N1CCC[C@H]1C(=O)N[C@@H](CO)C(=O)O [Lfcin2] | – | 0.92 µM (≈ 2 µg/mL) | 15 µM (≈ 32.7 µg/mL) | >59 µM | 29 µM (≈ 63.2 µg/mL) | >59 µM | >59 µM | >59 µM | 15 µM (≈ 32.7 µg/mL) | 15 µM (≈ 32.7 µg/mL) | 59 µM (≈ 129 µg/mL) | >59 µM | >59 µM | 29 µM (≈ 63.2 µg/mL) | >59 µM | 59 µM (≈ 129 µg/mL) | – | – | – | –
3 | CN[C@H](CC(C)C)C(=O)N[C@H]1C(=O)N[C@@H](CC(N)=O)C(=O)N[C@H]2C(=O)N[C@H]3C(=O)N[C@H](C(=O)N[C@H](C(=O)O)c4cc(O)cc(O)c4-c4cc3ccc4O)[C@H](O)c3ccc(c(Cl)c3)Oc3cc2cc(c3O[C@@H]2O[C@H](CO)[C@@H](O)[C@H](O)[C@H]2O[C@H]2C[C@](C)(N)[C@H](O)[C@H](C)O2)Oc2ccc(cc2Cl)[C@H]1O [vancomycin, reference compound] | – | – | – | – | – | – | – | – | – | – | – | – | – | – | – | – | 0.1 log10 CFU/g | −1.2% | – | –
4 | FKAFRWAWRMKKLAAPS [Lfcin3] | – | 0.95 µM | 1.9 µM | >61 µM | 15 µM | >61 µM | >61 µM | >61 µM | 15 µM | 31 µM | 61 µM | 61 µM | >61 µM | 61 µM | 31 µM | 31 µM | – | – | – | –
5 | FKAFRWAWRWKKLAAPS [Lfcin5] | – | 0.93 µM | 1.9 µM | >60 µM | 15 µM | >60 µM | 30 µM | >60 µM | 7.4 µM | 30 µM | 60 µM | 60 µM | >60 µM | >30 µM | 60 µM | 30 µM | – | – | approximately 76.6% | –
6 | FKCWRWQWRWKKLGAPS [Lfcin6] | – | 7.1 µM | 7.1 µM | >57 µM | 57 µM | >57 µM | >57 µM | >57 µM | 14 µM | 57 µM | >57 µM | >57 µM | >57 µM | >57 µM | 57 µM | 57 µM | – | – | – | –
7 | colistin [reference compound] | – | – | – | – | – | – | – | – | – | – | – | – | – | – | – | – | – | – | – | 75%
